Assay results as given in US11919965B2, “Methods of treating multiple myeloma with bispecific anti-BCMA x anti-CD3 antibodies” (Regeneron Pharmaceuticals, Inc., priority 2019, dated 2024).
Read-outs that look alike come from different tables or passages of the source.

Columns and labels:
MC38/BCMA tumors = assay: Syngenic tumor model in CD3-humanized mice (Example 16); assay type: in vivo, mouse
Experimental: (§1) To determine the in vivo efficacy of anti-BCMA×anti-CD3 bispecific antibodies (Abs), a syngenic tumor study was performed in mice expressing human CD3. C57BL/6 mice that express human CD3deg in place of murine CD3deg (CD3-humanized mice) were subcutaneously implanted with either 0.5×10^6 B16 melanoma cells that have been engineered to express full-length human BCMA (B16/BCMA cells) or 1×10^6 MC38 colon carcinoma cells that have been engineered to express full-length human BCMA (MC38/BCMA). […] The mice were administered these Abs twice more on days 4 and 7 for a total of three doses, and tumor growth was assessed throughout the experiment.
(§2) Implantation and measurement of syngenic tumors: C57BL/6 mice that express human CD3deg in place of murine CD3deg (CD3-humanized mice) were subcutaneously implanted with either 0.5×10^6 B16F10 melanoma cells that have been engineered to express full-length human BCMA (B16/BCMA cells) or 1×10^6 MC38 colon carcinoma cells that have been engineered to express full-length human BCMA (MC38/BCMA). […] The mice were administered these Abs twice more on days 4 and 7 for a total of three doses, and tumor growth was assessed throughout the experiment.
(§3) Calculation of syngenic tumor growth and inhibition: In order to determine tumor volume by external caliper, the greatest longitudinal diameter (length in mm) and the greatest transverse diameter (width in mm) were determined. Tumor volumes based on caliper measurements were calculated by the formula: Volume (mm^3)=(length×width^2)/2.

B16/BCMA tumors = assay: as above; assay type: in vivo, mouse
Experimental: as §1, §2, §3

[1] = test system: primary cynomolgus monkey CD138+ plasma cells; assay: Autologous T cell-mediated killing of plasma cells and T cell activation (% CD25 upregulation); assay type: cell-based
Experimental: (§4) The specific killing of enriched CD138^+ human or cynomolgus monkey plasma cells by unstimulated autologous T cells was assessed by flow cytometry. Human or cynomolgus bone marrow aspirates and blood were provided within 24 hours of harvest. CD138^+ plasma cells were enriched from bone marrow by positive selection using the EasySep Human CD138^+ Positive Selection kit according to the manufacturer's instructions. PBMC from whole blood were isolated by density separation. PBMC were labeled with 1 μM of VYBRANT™ CFDA-SE fluorescent tracking dye. […] At the end of the culture, surviving CD138^+ plasma cells were analyzed by flow cytometry, utilizing fixable LIVE/DEAD dye and plasma cell specific cell surface markers. Percent viability was normalized to control condition (plasma cells in the presence of PBMC only). T cell activation was assessed by flow cytometry. Activation is reported as the percentage of CD2^+/CD4^+ or CD2^+/CD8^+/CD16^− T cells expressing CD25. Percent T cell activation was normalized to control condition (plasma cells in the presence of PBMC only).

[2] = test system: primary human CD138+ plasma cells; assay: as above; assay type: cell-based; details: for EC50: read-out: T Cell Activation (% CD25 Upregulation) CD8+ T cells EC50
Experimental: as §4

[3] = test system: BCMA+ MOLP-8-luciferase tumors; assay: Xenogenic tumor model, i.v. MOLP-8-luciferase in PBMC-engrafted NSG mice, bioluminescence (Example 14); assay type: in vivo, mouse; details: 4 mg/kg
Experimental: To determine the in vivo efficacy of anti-BCMA×anti-CD3 bispecific antibodies (Abs), a xenogenic tumor study was performed. On day −11, immunodeficient NOD.Cg-Prkdc^scidII2rg^tm1Wjl/SzJ (NSG) mice were intraperitoneally injected with 4×10^6 human peripheral blood mononuclear cells (PBMC) from a normal, healthy donor. On day 0, the mice were intravenously administered 2×10^6 BCMA^+ MOLP-8 human multiple myeloma tumor cells that were engineered to also express firefly luciferase (MOLP-8-luciferase cells). […] The mice were administered these Abs twice more on days 3 and 7, for a total of three doses. Tumor growth was assessed over 48 days by measuring tumor bioluminescence (BLI) in anesthetized animals. As a positive control, a group of mice (n=5) was given only MOLP-8-luciferase cells, but not PBMC or antibody.
Implantation and measurement of xenogenic tumors: On day −11, immunodeficient NOD.Cg-Prkdc^scidII2rg^tm1Wjl/SzJ (NSG) mice were intraperitoneally injected with 5×10^6 human PBMC from a normal, healthy donor. On day 0, the mice were intravenously administered 2×10^6 BCMA^+ MOLP-8-luciferase cells. […] The mice were administered these Abs twice more on days 3 and 7, for a total of three doses. Tumor growth was assessed over 48 days by measuring tumor BLI in anesthetized animals. As a positive control, a group of mice (n=5) was given only MOLP-8-luciferase cells, but not PBMC or antibody.
Measurement of xenogenic tumor growth: BLI imaging was used to measure tumor burden. Mice were injected IP with 150 mg/kg of the luciferase substrate D-luciferin suspended in PBS. Five minutes after this injection, BLI imaging of the mice was performed under isoflurane anesthesia using the Xenogen IVIS system. Image acquisition was carried out with the field of view at D, subject height of 1.5 cm, and medium binning level with automatic exposure time determined by the Living Image Software. BLI signals were extracted using Living Image software: regions of interest were drawn around each tumor mass and photon intensities were recorded as p/s/cm2/sr.

In the case of “REGN5458: anti-BCMA×anti-CD3 bispecific antibody: mAb21581 BCMA heavy chain, mAb7221G CD3 heavy chain and common light chain; SEQ ID NOs 126, 127, 129”, the “tumor growth” value (MC38/BCMA tumors; 0.4 or 0.04 mg/kg) is reported as “suppress the growth of both tumor lines in a dose-dependent manner”, the “Average Tumor Size (mm3) ± SEM on Day 5” value (MC38/BCMA tumors; MC38/BCMA Tumor, 0.04 mg/kg) is reported as 11.9 ± 2.9 mm3 and the “Average Tumor Size (mm3) ± SEM on Day 10” value (MC38/BCMA tumors; MC38/BCMA Tumor, 0.04 mg/kg) is reported as 66.7 ± 22.5 mm3. The “Average Tumor Size (mm3) ± SEM on Day 14” value (MC38/BCMA tumors; MC38/BCMA Tumor, 0.04 mg/kg) was 273.3 ± 115.3 mm3, the “Average Tumor Size (mm3) ± SEM on Day 18” value (MC38/BCMA tumors; MC38/BCMA Tumor, 0.04 mg/kg) was 641.5 ± 309.8 mm3 and the “Average Tumor Size (mm3) ± SEM on Day 10” value (MC38/BCMA tumors; MC38/BCMA Tumor, 0.4 mg/kg) was 0.0 ± 0.0 mm3. The “Average Tumor Size (mm3) ± SEM on Day 14” value (MC38/BCMA tumors; MC38/BCMA Tumor, 0.4 mg/kg) was 2.9 ± 2.9 mm3, the “Average Tumor Size (mm3) ± SEM on Day 18” value (MC38/BCMA tumors; MC38/BCMA Tumor, 0.4 mg/kg) was 7.5 ± 7.5 mm3 and the “tumor growth” value (B16/BCMA tumors; 0.4 or 0.04 mg/kg) was “suppress the growth of both tumor lines in a dose-dependent manner”. The “Average Tumor Size (mm3) ± SEM on Day 5” value (B16/BCMA tumors; B16/BCMA Tumor, 0.04 mg/kg) was 3.3 ± 2.2 mm3, the “Average Tumor Size (mm3) ± SEM on Day 10” value (B16/BCMA tumors; B16/BCMA Tumor, 0.04 mg/kg) was 15.4 ± 12.5 mm3 and the “Average Tumor Size (mm3) ± SEM on Day 14” value (B16/BCMA tumors; B16/BCMA Tumor, 0.04 mg/kg) was 81.4 ± 49.2 mm3. The “Average Tumor Size (mm3) ± SEM on Day 5” value (B16/BCMA tumors; B16/BCMA Tumor, 0.4 mg/kg) was 0.0 ± 0.0 mm3, the “Average Tumor Size (mm3) ± SEM on Day 10” value (B16/BCMA tumors; B16/BCMA Tumor, 0.4 mg/kg) was 0.0 ± 0.0 mm3 and the “Average Tumor Size (mm3) ± SEM on Day 14” value (B16/BCMA tumors; B16/BCMA Tumor, 0.4 mg/kg) was 8.1 ± 4.4 mm3. The “Average Tumor Size (mm3) ± SEM on Day 18” value (B16/BCMA tumors; B16/BCMA Tumor, 0.4 mg/kg) was 47.1 ± 17.0 mm3, the “T Cell Activation (% CD25 Upregulation) CD8+ T cells % Activation” value ([1]; Cynomolgus Monkey Donor 1 plasma cells, autologous T cells, maximum) was 12% and the EC50 ([1]; Cynomolgus Monkey Donor 1 plasma cells, autologous T cells, read-out: T Cell Activation (% CD25 Upregulation) CD8+ T cells EC50) was 22.4 nM. The “T Cell Activation (% CD25 Upregulation) CD4+ T cells % Activation” value ([1]; Cynomolgus Monkey Donor 2 plasma cells, autologous T cells, maximum) was 16%, the EC50 ([1]; Cynomolgus Monkey Donor 2 plasma cells, autologous T cells, read-out: T Cell Activation (% CD25 Upregulation) CD4+ T cells EC50) was roughly 18.1 nM and the “maximum percent T cell activation, CD8+ T cells” value ([1]; donor 1) was 12%. For the same substance, the EC50 ([1]; donor 1, read-out: EC50, CD4+ T cell activation) was 28.1 nM, the EC50 ([1]; donor 1, read-out: EC50, CD8+ T cell activation) was 22.4 nM and the “maximum percent T cell activation, CD4+ T cells” value ([1]; donor 2) was 16%. It also gave an EC50 ([1]; donor 2, read-out: EC50, CD4+ T cell activation) of 18.1 nM, an EC50 ([1]; donor 2, read-out: EC50, CD8+ T cell activation) of 76.7 nM and an EC50 ([2]; Human Donor 1 plasma cells, autologous primary human T cells) of 0.214 nM. The “T Cell Activation (% CD25 Upregulation) CD8+ T cells % Activation” value ([2]; Human Donor 2 plasma cells, autologous primary human T cells, maximum) was 36%, the EC50 ([2]; Human Donor 2 plasma cells, autologous primary human T cells) was 0.86 nM and the “maximum percent CD8+ T cell activation” value ([2]; donor 2) was 36%. For the same substance, the “Radiance [p/s/cm2^2/sr] 8 days post-implantation (mean ± SEM)” value [3] was 5.66E+05 ± 1.97E+04 p/s/cm2^2/sr, the “Radiance [p/s/cm2^2/sr] 22 days post-implantation (mean ± SEM)” value [3] was 1.08E+06 ± 1.71E+05 p/s/cm2^2/sr and the “Radiance [p/s/cm2^2/sr] 24 days post-implantation (mean ± SEM)” value [3] was 1.02E+06 ± 1.99E+05 p/s/cm2^2/sr. The “Radiance [p/s/cm2^2/sr] 28 days post-implantation (mean ± SEM)” value [3] was 3.56E+06 ± 6.34E+05 p/s/cm2^2/sr, the “Radiance [p/s/cm2^2/sr] 30 days post-implantation (mean ± SEM)” value [3] was 6.92E+06 ± 1.40E+06 p/s/cm2^2/sr and the “Radiance [p/s/cm2^2/sr] 34 days post-implantation (mean ± SEM)” value [3] was 2.65E+07 ± 1.36E+07 p/s/cm2^2/sr. For the same substance, the “Radiance [p/s/cm2^2/sr] 37 days post-implantation (mean ± SEM)” value [3] was 4.52E+07 ± 1.40E+07 p/s/cm2^2/sr and the “tumor growth” value ([3]; three doses) was “delayed the growth”.
